Source: patent publication US20240390452A1, “Protective Agent Against Endothelial Dysfunction” (THE TRUSTEES OF THE UNIVERSITY OF PENNSYLVANIA, priority 2023, published 2024)
“Also recorded” adds a separate entry of the source.

How the values were obtained:
[1] = tested on: NLRP3 subunit of the inflammasome; assay: NLRP3 immunostaining in cells exposed to COVID-19 serum; format: cell-based, human; settings: cells pre-treated 3 hrs with PIP-2, then COVID-19 serum 1 hr; anti-NLRP3 immunostaining
Procedure: (§1) Cells were pre-treated for 3 hrs with PIP-2 and then with COVID-19 serum/normal serum for an hour. Cells were then fixed and NLRP3/caspase-1 were monitored by immunostaining with anti-NLRP3 or activated caspase-1 antibody. FIG. 4A: NLRP3 immunostaining. FIG. 4B: Quantification of the fluorescent signal using Metamorph imaging software *p<0.001. FIG. 4C: Caspase-1 immunostaining. FIG. 4D: Quantification of the fluorescent signal using Metamorph imaging software *p<0.05.
(§2) HPMVEC were incubated for three hours in the incubator at 37° C. and 5% CO2 with medium supplemented with either liposomes alone or PIP-2 in liposomes (concentration 10 nM) without 10% FBS. After 3 hours of incubation, cells were either treated with serum of a healthy individual or COVID-19 patients at admission to ICU along with either liposomes alone or PIP-2 in liposomes together for one hour and three hours for ROS measurement and ICAM-1 induction respectively.

ICAM-1 = ICAM-1 immunostaining in HPMVEC exposed to COVID-19 serum; format: cell-based, human; settings: HPMVEC pre-treated 3 hrs with PIP-2 in liposomes (10 nM), then COVID-19 serum; anti-ICAM immunostaining
Procedure: Primary cultures of Human Pulmonary Microvascular Endothelial Cells (HPMVEC) were grown in a T-25 culture dish and routinely maintained in Dulbecco's Modified Eagle Medium (DMEM) supplemented with 10% fetal bovine serum (FBS), 1× glutamax, 1× antibiotics, and endothelial cell growth supplement (Millipore Upstate). Cells were grown and maintained in 5% CO2 at 37° C. Once grown to the appropriate density, cells were then split and grown on coverslips in 35 mm petri dishes. Cells were then treated either with medium supplemented with 10% serum from healthy individuals or COVID-19 patients at admission to ICU and then monitored for ROS production and ICAM-1 induction as described below.
HPMVEC were incubated for one hour in the incubator at 37° C. and 5% CO2 with medium supplemented with 10% serum either from a healthy individual or from patients suffering from COVID-19. The serum replaced the FBS which was otherwise used as a supplement in DMEM. Post incubation, cells were either fixed for ICAM-1 immuno-staining or the cells were stained for ROS measurement as described below. Serum from one healthy individual and seven COVID-19 patients were used in this study.
HPMVEC were incubated for three hours in the incubator at 37° C. and 5% CO2 with medium supplemented with either liposomes alone or PIP-2 in liposomes (concentration 10 nM) without 10% FBS. […]

caspase-1 = assay: Activated caspase-1 immunostaining in cells exposed to COVID-19 serum; format: cell-based, human; settings: cells pre-treated 3 hrs with PIP-2, then COVID-19 serum 1 hr; activated caspase-1 antibody immunostaining
Procedure: as §1, §2

[2] = tested on: Human Pulmonary Microvascular Endothelial Cells (HPMVEC); format: cell-based; settings: HPMVEC pre-treated 3 hrs with PIP-2 in liposomes (10 nM), then COVID-19 serum 1 hr; CellROX fluorescence
[3] = biological target: T1, phospholipase A2 (PLA2) activity of peroxiredoxin 6 (Prdx6) (Homo sapiens, UniProt P30041); settings: earlier work / WO 2020/037146 A1; cited from earlier work
T1 sequence (P30041 1-224): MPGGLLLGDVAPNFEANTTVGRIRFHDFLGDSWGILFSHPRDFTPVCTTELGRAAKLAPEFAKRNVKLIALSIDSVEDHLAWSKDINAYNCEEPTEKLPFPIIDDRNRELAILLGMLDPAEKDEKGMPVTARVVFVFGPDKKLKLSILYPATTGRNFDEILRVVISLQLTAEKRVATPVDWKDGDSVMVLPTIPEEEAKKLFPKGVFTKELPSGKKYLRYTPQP

lung oxidative injury = settings: earlier work; cited from earlier work

LHDFRHQIL (in liposomes) [PIP-2, tested in liposomes]
NLRP3 expression [1]: significantly reduced; also recorded: decreased
ICAM-1 expression (endothelial inflammatory phenotype) (ICAM-1): prevented the appearance of an endothelial inflammatory phenotype; also recorded: significantly reduced; also recorded: decreased; also recorded: significantly reverse
caspase 1 expression (caspase-1): significantly reduced; also recorded: decreased
ROS production (endothelial activation) post COVID-19 serum exposure [2]: protected the endothelium from activation; also recorded: significant decrease; also recorded: decreased; also recorded: able to reduce the endothelial activation; also recorded: significantly reverse
inhibition of PLA2 (aiPLA2) activity of Prdx6 [3]: specific for inhibition of aiPLA2 activity

CCCCCCCCCCCCCCCCOCC(COCC(F)(F)F)OP(=O)(O)OC (stereo not drawn) [MJ33]
protection against lung oxidative injury (lung oxidative injury): able to protect against lung oxidative injury
